Results: patent US11319343B2, “Method of treatment” (ROYAL MELBOURNE INSTITUTE OF TECHNOLOGY, priority 2017, dated 2022)
Residues, ends and D or L forms follow the SMILES beside them. No end group written: not given here.

Key:
TLR7 [1] = molecular target: T1, TLR7 (Mus musculus, UniProt P58681); type: cell-based; details: for IFN-β, IL-1β, TNF-α and IL-6 expression in response to imiquimod: apocynin 300 μM pre-treatment, SOD 300 U/mL (basal or imiquimod-stimulated), catalase 1000 U/mL
T1 construct: endogenous in cells; host or cells: immortalized bone marrow-derived macrophages (BMDMs) or RAW264.7 cells
T1 sequence (P58681 27-1050): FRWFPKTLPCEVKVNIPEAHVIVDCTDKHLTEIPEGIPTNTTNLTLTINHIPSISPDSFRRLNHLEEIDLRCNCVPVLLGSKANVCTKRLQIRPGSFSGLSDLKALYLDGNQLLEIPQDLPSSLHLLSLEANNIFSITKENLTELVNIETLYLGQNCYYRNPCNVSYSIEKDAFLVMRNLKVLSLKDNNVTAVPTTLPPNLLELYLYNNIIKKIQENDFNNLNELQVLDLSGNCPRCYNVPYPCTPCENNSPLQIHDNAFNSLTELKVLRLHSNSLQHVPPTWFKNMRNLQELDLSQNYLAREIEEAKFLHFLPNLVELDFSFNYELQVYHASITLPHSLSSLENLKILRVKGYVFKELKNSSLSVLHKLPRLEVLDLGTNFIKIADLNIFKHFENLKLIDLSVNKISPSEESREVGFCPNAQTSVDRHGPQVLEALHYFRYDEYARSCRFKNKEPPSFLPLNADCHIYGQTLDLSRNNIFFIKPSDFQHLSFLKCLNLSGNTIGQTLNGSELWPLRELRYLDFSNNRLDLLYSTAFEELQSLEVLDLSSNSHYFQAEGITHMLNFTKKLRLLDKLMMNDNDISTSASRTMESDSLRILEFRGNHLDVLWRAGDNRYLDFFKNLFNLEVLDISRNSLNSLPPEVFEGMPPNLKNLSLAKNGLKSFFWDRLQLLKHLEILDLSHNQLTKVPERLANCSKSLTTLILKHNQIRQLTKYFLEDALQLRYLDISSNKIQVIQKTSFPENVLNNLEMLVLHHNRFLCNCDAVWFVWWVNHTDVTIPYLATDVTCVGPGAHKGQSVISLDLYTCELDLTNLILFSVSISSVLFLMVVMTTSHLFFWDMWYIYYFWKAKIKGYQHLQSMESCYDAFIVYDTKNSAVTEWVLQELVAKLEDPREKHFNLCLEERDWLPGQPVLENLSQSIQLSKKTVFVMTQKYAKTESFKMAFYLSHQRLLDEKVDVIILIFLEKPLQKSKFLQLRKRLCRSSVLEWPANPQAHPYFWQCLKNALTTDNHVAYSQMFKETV

[2] = tested on: mouse primary alveolar macrophages; type: cell-based
pERK1/2 = experiment: Cytosolic pERK1/2 activity, FRET biosensor; type: cell-based, mouse; details: TLR7-dependent manner
TLR7 responses = type: in vivo; details: imiquimod 50 μg/mouse intranasally, 24 h
[3] = tested on: human alveolar macrophages; type: cell-based; details: imiquimod 10 μg/mL, AMs from human
[4] = tested on: macrophage mitochondrial superoxide; experiment: Macrophage mitochondrial superoxide production; type: cell-based; details: TLR7 activation with imiquimod
PKC = experiment: Cytosolic PKC activity, FRET biosensor cytoCKAR; type: cell-based, mouse; details: WT macrophages, imiquimod, within 5 min
NOX2 oxidase = NOX2 oxidase assembly (NOX2-p47phox association), confocal fluorescence microscopy; details: pre-treatment: Dynasore 100 μM, bafilomycin A 100 nM, PD98059 30 μM
[5] = tested on: influenza A virus strain HKx31 (H3N2); type: cell-based
[6] = Cell viability after C98i peptides; type: cell-based
HKx31 influenza A virus = details: mouse, in vivo
TLR7 [7] = type: cell-based, mouse
TLR7 [8] = molecular target: T1, TLR7; experiment: TLR7 agonist response (cytokine expression) in bone marrow derived macrophages with C98i peptides; type: cell-based; details: for inhibition of TLR7 agonist, imiquimod, response in vitro (IL-6 mRNA expression): peptides 100 μM + 10 μg/ml imiquimod, no TAT
TLR9 = type: cell-based, mouse; details: CpG 10 μg/mL; apocynin
TLR3 = type: cell-based, mouse; details: poly I:C 25 μg/mL; apocynin pre-treatment
xanthine oxidase = molecular target: T2, xanthine oxidase (Bos taurus, UniProt P80457); experiment: Xanthine/xanthine oxidase cell-free superoxide assay (ROS scavenging); type: biochemical; details: 1 μM
T2 construct: purchased Sigma X1875
T2 sequence (P80457 whole entry): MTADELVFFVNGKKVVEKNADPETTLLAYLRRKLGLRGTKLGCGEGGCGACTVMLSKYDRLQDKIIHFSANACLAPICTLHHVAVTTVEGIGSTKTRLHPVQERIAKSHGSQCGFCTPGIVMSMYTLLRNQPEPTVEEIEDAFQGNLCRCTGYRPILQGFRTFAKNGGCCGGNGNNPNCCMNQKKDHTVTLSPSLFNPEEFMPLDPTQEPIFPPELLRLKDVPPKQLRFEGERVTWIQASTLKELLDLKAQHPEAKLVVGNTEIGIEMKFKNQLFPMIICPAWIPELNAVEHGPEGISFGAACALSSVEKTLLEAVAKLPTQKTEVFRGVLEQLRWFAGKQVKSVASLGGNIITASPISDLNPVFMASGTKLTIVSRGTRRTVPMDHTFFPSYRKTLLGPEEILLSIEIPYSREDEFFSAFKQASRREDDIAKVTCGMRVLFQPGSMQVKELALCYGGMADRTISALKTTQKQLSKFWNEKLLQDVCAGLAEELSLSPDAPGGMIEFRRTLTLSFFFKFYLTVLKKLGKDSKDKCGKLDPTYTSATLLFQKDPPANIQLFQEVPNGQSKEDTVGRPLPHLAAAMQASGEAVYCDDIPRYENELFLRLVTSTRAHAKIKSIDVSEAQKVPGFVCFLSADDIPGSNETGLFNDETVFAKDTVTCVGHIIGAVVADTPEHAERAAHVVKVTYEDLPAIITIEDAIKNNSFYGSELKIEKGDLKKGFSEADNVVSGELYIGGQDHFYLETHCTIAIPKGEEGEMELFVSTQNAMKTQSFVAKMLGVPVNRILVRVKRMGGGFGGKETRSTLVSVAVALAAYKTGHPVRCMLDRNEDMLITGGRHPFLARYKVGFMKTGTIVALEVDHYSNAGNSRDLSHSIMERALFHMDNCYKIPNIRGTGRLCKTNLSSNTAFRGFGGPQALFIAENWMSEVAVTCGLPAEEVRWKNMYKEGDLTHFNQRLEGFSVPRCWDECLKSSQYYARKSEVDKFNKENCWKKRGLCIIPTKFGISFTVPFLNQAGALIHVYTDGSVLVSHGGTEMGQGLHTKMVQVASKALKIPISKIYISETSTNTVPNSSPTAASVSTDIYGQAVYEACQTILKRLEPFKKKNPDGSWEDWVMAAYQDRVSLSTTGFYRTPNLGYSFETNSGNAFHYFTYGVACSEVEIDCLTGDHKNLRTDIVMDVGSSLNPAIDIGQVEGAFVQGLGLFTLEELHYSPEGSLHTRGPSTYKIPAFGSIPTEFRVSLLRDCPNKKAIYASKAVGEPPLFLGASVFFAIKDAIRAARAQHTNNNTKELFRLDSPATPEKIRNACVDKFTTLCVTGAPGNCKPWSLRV
Method: Briefly, Krebs-HEPES buffer containing L-O12 (100 μM) was added into a 96-well Optiview plate. Following this, 0.1% w/v DMSO, unconjugated gp91dstat (Ugp91ds-TAT, 1 μM) or cholestanol-conjugated gp91ds-TAT (1 μM) were added in combination with Xanthine (100 μM). Immediately after xanthine oxidase (0.03 U/mL) was added, photon emission [relative light units (RLU)/s] was detected using the Chameleon (Trademark) luminescence detector (Hidex, model 425105, Finland) and recorded from each well for 1 s over 60 cycles. Individual data points for each group were derived from the average values of the three replicates minus the respective blank controls. Data are represented as raw values.

In the case of CC(C)Cn1cnc2c(N)nc3ccccc3c21 [imiquimod], the “IFN-β, IL-1β, TNF-α and IL-6 expression” value (TLR7 [1]; imiquimod alone, WT macrophages) is reported as “significant elevation”, the “endosomal ROS production caused by the agonist” value [2] is reported as “markedly increased endosomal ROS” and the “cytosolic pERK1/2” value (pERK1/2) is reported as “increased cytosolic pERK1/2”. The “lung IFN-β, IL-1β, IL-6 and TNF-α” value (TLR7 responses; NOX2−/y mice) was “elevated levels”, the airway inflammation (TLR7 responses; WT and NOX2−/y mice) was “no discernible alterations” and the “endosomal ROS production caused by the agonist” value [3] was “markedly increased endosomal ROS”. For the same compound, the “macrophage mitochondrial superoxide production” value [4] was “failed to increase” and the “cytosolic PKC activity” value (PKC) was “elevated cytosolic PKC activity”.

With CO/C1=C\C(C)=C\[C@@H](C)[C@@H](O)[C@@H](C)C/C(C)=C/C=C/[C@H](OC)[C@@H]([C@@H](C)[C@@H](O)[C@H](C)[C@@]2(O)C[C@@H](O)[C@H](C)[C@@H](C(C)C)O2)OC1=O [bafilomycin A] the “NOX2 dependent ROS production in response to virus infection and to imiquimod” value [2] was “abolished”, the “endosomal ROS production (OxyBURST) in response to influenza A virus” value (shortened to “endosomal ROS production (OxyBURST)”) [2] was “abolished the LysoTracker fluorescence and endosomal ROS production” and the “co-location (association) of NOX2 and p47phox caused by influenza virus” value (shortened to “co-location (association)”) (NOX2 oxidase) was “reduced”.

In the case of O=C(N/N=C/c1ccc(O)c(O)c1)c1cc2ccccc2cc1O [Dynasore], the “catalase-dependent increase in cytokines” value (TLR7 [1]; WT macrophages treated with Dynasore (100 μM)) is reported as “significantly suppressed”, the “co-location (association)” value (NOX2 oxidase) is reported as “reduced” and the “influenza nucleoprotein (NP) fluorescence” value [5] is reported as “almost abolished”.

With CC(C)C[C@H](NC(=O)[C@@H](NC(=O)[C@@H]1CCCN1C(=O)[C@@H](NC(=O)[C@H](CS)NC(=O)[C@H](CC(N)=O)NC(=O)[C@H](CS)NC(=O)[C@H](CCCNC(=N)N)NC(=O)[C@H](CC(C)C)NC(=O)[C@H](CC(=O)O)NC(=O)[C@H](CCCNC(=N)N)NC(=O)[C@H](CCCNC(=N)N)NC(=O)[C@H](CCCNC(=N)N)NC(=O)[C@H](CCC(N)=O)NC(=O)[C@H](CCCNC(=N)N)NC(=O)[C@H](CCCNC(=N)N)NC(=O)[C@H](CCCCN)NC(=O)[C@H](CCCCN)NC(=O)[C@H](CCCNC(=N)N)NC(=O)CNC(=O)[C@@H](N)Cc1ccc(O)cc1)C(C)C)C(C)C)C(N)=O [C98i] (H-YGRKKRRQRRRDLRCNCVPVL-NH2) the cell viability [6] was “no adverse effect”.

With “YGRKK-RRQRR-RCSTR-IRRQL-NH2 [Ugp91ds-TAT]” the “decrease in lung influenza A viral burden” value (HKx31 influenza A virus) was ~10,000 fold, the “lung IFN-β mRNA levels compared to the control virus group” value (HKx31 influenza A virus) was “failed to do so” and the “superoxide production in BALF inflammatory cells” value (HKx31 influenza A virus) was “almost abolished”. For the same compound, the “weight loss caused by influenza A virus at day 3” value (HKx31 influenza A virus) was “significantly reduced the weight loss”.

For COc1cccc(-c2cc(=O)c3ccccc3o2)c1N [PD98059], the “endosomal ROS production (OxyBURST)” value [2] was “did not influence” and the “co-location (association)” value (NOX2 oxidase) was “did not influence”.

In the case of CC(C)C[C@H](NC(=O)[C@@H](NC(=O)[C@@H]1CCCN1C(=O)[C@@H](NC(=O)[C@H](CS)NC(=O)[C@H](CC(N)=O)NC(=O)[C@H](CS)NC(=O)[C@H](CCCNC(=N)N)NC(=O)[C@H](CC(C)C)NC(=O)[C@@H](N)CC(=O)O)C(C)C)C(C)C)C(N)=O [C98i no TAT, DLRCNCVPVL-NH2] (H-DLRCNCVPVL-NH2), the cell viability [6] is reported as “no adverse effect”.

With catalase the “cytokine expression in cells expressing mutated TLR7” value (TLR7 [7]) was “little or no effect”, the “TLR7, TREML4 or NLRP3 expression” value (TLR7 [7]; catalase) was “no effect” and the “cytokine expression in cells with WT TLR7 or TLR7C445A” value (TLR7 [7]; catalase 1000 U/mL, transfected TLR7−/− macrophages) was “markedly increased”. The “IFN-β and IL-1β expression” value (TLR7 [1]; 1 hr pulse catalase 1000 U/mL, after 24 h, WT macrophages) was “significant elevations” and the “IFN-β, IL-1β, TNF-α and IL-6 expression in response to imiquimod” value (TLR7 [1]; WT macrophages) was “significantly increased”.

For RCNA-NH2, the “inhibition of TLR7 agonist, imiquimod, response in vitro (IL-6 mRNA expression)” value (shortened to “inhibition of TLR7 agonist, imiquimod”) (TLR7 [8]) was “none”.

For COc1cc(C(C)=O)ccc1O [apocynin, 4′-Hydroxy-3′-methoxy acetophenone], the “IFN-β, IL-1β, TNF-α and IL-6 expression in response to imiquimod” value (TLR7 [1]; WT macrophages) was “significantly enhanced”, the “increases in IFN-β, IL-1β, TNF-α and IL-6 triggered by CpG” value (TLR9) was “unaffected” and the “IFN-β, IL-1β, TNF-α and IL-6 expression in response to poly I:C” value (TLR3) was “suppressed”.

In the case of “Ac-Asp(OChol)-PEG4-PEG3-PEG4-gp91-NH2 [Cgp91ds-TAT]”, the airway inflammation (HKx31 influenza A virus) is reported as “almost abolished”, the “decrease in lung influenza A viral burden” value (HKx31 influenza A virus) is reported as ~10,000 fold and the “lung IFN-β mRNA levels compared to the control virus group” value (HKx31 influenza A virus) is reported as “significantly increased”. For the same compound, the “reduction in airways inflammation” value (HKx31 influenza A virus) was ~40%, the “superoxide production in BALF inflammatory cells” value (HKx31 influenza A virus) was “almost abolished” and the “weight loss caused by influenza A virus at day 3” value (HKx31 influenza A virus) was “significantly reduced the weight loss”. For the same compound, the ROS scavenging properties (xanthine oxidase) was “not attributed to enhanced ROS scavenging properties”.

In the case of RANC-NH2, the “inhibition of TLR7 agonist, imiquimod” value (TLR7 [8]) is reported as “none”.

With RANA-NH2 the “inhibition of TLR7 agonist, imiquimod” value (TLR7 [8]) was “none”.

In the case of CC(=O)c1ccc2c(c1)Nc1ccccc1S2 [ML171], the “endosomal ROS production (OxyBURST)” value [2] is reported as “unaffected”.

In the case of “RCNC—NH2 (RCNC-NH2; cysteine pairing not given here)”, the “inhibition of TLR7 agonist, imiquimod” value (TLR7 [8]) is reported as “none”.

In the case of “YGRKKRRQRRRCLVPNDCRLV-NH2 [scrambled C98i]”, the “inhibition of TLR7 agonist (imiquimod)” value (TLR7 [8]; scrambled sequence with TAT) is reported as “not able to inhibit”.
